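Tested at 5 concentrations; 48 h exposure; 96-well plates; endpoints linearly interpolated, else capped at highest concentration. Definition used: TGI = concentration required for complete inhibition of growth.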
Key:
Test in all cases: growth of human tumour cells (NCI), 48 h
ACHN renal = tested on: ACHN renal
COLO 205 colon = tested on: COLO 205 colon
EKVX NSCLC = tested on: EKVX NSCLC
HT29 colon = tested on: HT29 colon
KM12 colon = tested on: KM12 colon
MDA-MB-435 = tested on: MDA-MB-435
SF-268 CNS = tested on: SF-268 CNS
SNB-19 CNS = tested on: SNB-19 CNS
T-47D breast = tested on: T-47D breast
UACC-62 melanoma = tested on: UACC-62 melanoma

Compound | TGI (ACHN renal) | TGI (COLO 205 colon) | TGI (EKVX NSCLC) | TGI (HT29 colon) | TGI (KM12 colon) | TGI (MDA-MB-435) | TGI (SF-268 CNS) | TGI (SNB-19 CNS) | TGI (T-47D breast) | TGI (UACC-62 melanoma)
COc1cc2c[n+](C)c3c4cc(OC)c(OCc5ccccc5)cc4c(OCc4ccccc4)cc3c2cc1OC | > 100 µM | 2.97 µM | > 100 µM | 15.5 µM | 23.8 µM | 10.5 µM | 17.4 µM | 15.2 µM | 21.6 µM | 10.4 µM
CCOC(=O)NN(C(=O)OCC)C(C(=O)c1ccccc1)N(NC(=O)OCC)C(=O)OCC | > 100 µM | > 100 µM | > 100 µM | > 100 µM | > 100 µM | > 100 µM | > 100 µM | > 100 µM | > 100 µM | > 100 µM

— PubChem BioAssay (NCI)
